Data reported in the Deep4Chem optical property database.

Experiment: solvent given as SMILES

Q: Which fluorescence lifetime (in C1CCOC1) does the source give for CC(C)(C)c1ccc(C2=C(c3ccc(-n4c5ccc(C(C)(C)C)cc5c5cc(C(C)(C)C)ccc54)cc3)S(=O)(=O)c3c2sc(-c2ccc(-n4c5ccc(C(C)(C)C)cc5c5cc(C(C)(C)C)ccc54)cc2)c3-c2ccc(C(C)(C)C)cc2)cc1 here?
A: 1.1 ns

Q: With O=C(O)c1ccc(C(=O)O)c2cc3ccccc3cc12 as the compound, how does the fluorescence lifetime (in C1CCOC1) read?
A: 19.2 ns

Q: What about the fluorescence lifetime (in CN(C)C=O) of the same compound?
A: 12.5 ns

Q: With CC(=O)c1ccc2ccc3cccc4ccc1c2c34 as the compound, how does the fluorescence lifetime (in C1CCOC1) read?
A: 13.4 ns

Q: What about the fluorescence lifetime (in CC#N) of the same compound?
A: 9.47 ns

Q: What about the fluorescence lifetime (in CCCCCC) of the same compound?
A: 6.56 ns

Q: What about the fluorescence lifetime (in CCO) of the same compound?
A: 0.784 ns

Q: And the fluorescence lifetime (in CN(C)C=O)?
A: 5.34 ns

Q: And the fluorescence lifetime (in CO)?
A: 0.538 ns

Q: And the fluorescence lifetime (in Cc1ccccc1)?
A: 2.8 ns

Q: What about the fluorescence lifetime (in ClCCl) of the same compound?
A: 4.8 ns

Q: Which fluorescence lifetime (in ClCCl) does the source give for N#C/C(=C(/C#N)c1ccc(-c2ccncc2)cc1)c1ccc(-c2ccncc2)cc1 here?
A: 0.1 ns

Q: Which results are given for CCN(CC)c1ccc(OC)c(C=O)c1?
A: fluorescence lifetime (in CC#N): 12.5 ns; fluorescence lifetime (in CC(C)O): 0.96 ns; fluorescence lifetime (in CCCCCC): 7.78 ns; fluorescence lifetime (in CCOC(C)=O): 12.5 ns; fluorescence lifetime (in CS(C)=O): 20.9 ns; fluorescence lifetime (in Cc1ccccc1): 12.5 ns; fluorescence lifetime (in ClCCl): 17 ns

Q: Which results are given for O=C1c2ccccc2C(=O)c2cc(-c3ccc(N(c4ccccc4)c4ccccc4)cc3)ccc21?
A: fluorescence lifetime (in CCCCCC): 5.51 ns; fluorescence lifetime (in CCOC(C)=O): 0.15 ns; fluorescence lifetime (in CCOCC): 2.81 ns; fluorescence lifetime (in Cc1ccccc1): 6.79 ns; fluorescence lifetime (in ClC(Cl)(Cl)Cl): 8.82 ns

Q: With CCCCCCCCc1ccc(-c2ccc(/C=C(\C#N)c3ccc(-c4cccc5cccc(-c6ccc(/C(C#N)=C/c7ccc(-c8ccc(CCCCCCCC)cc8)cc7)cc6)c45)cc3)cc2)cc1 as the compound, how does the fluorescence lifetime (in Cc1ccccc1) read?
A: 4.9 ns

Q: With O=Cc1ccc(C#CC(C#Cc2ccc(C=O)o2)=Cc2ccc(C=C(C#Cc3ccc(C=O)o3)C#Cc3ccc(C=O)o3)s2)o1 as the compound, how does the fluorescence lifetime (in ClC(Cl)Cl) read?
A: 0.4 ns

Q: With COc1ccc(-c2csc(/C(C#N)=C/c3ccccc3Cl)n2)cc1 as the compound, how does the fluorescence lifetime (in CC#N) read?
A: 3.93 ns

Q: Which fluorescence lifetime (in ClCCl) does the source give for CC(C)(C)c1ccc(-c2nc3c4ccc(-c5ccccc5)cc4c4cc(-c5ccccc5)ccc4c3n2-c2ccc(C(C)(C)C)cc2)cc1 here?
A: 10.1 ns

Q: With Cc1cc(C)c(C)c(B(c2c(C)c(C)c(N3c4ccccc4Oc4ccccc43)c(C)c2C)c2c(C)c(C)c(N3c4ccccc4Oc4ccccc43)c(C)c2C)c1C as the compound, how does the fluorescence lifetime (in CC(C)(C)c1ccc(-n2c3ccc([Si](c4ccccc4)(c4ccccc4)c4ccccc4)cc3c3cc([Si](c4ccccc4)(c4ccccc4)c4ccccc4)ccc32)cc1) read?
A: 2.9 ns

Q: With CCCCCCCCN1c2ccccc2Sc2cc(/C=C/c3ccc(N(c4ccc(/C=C/c5ccc6c(c5)Sc5ccccc5N6CCCCCCCC)cc4)c4ccc(/C=C/c5ccc(/C=C/c6ccc(N(c7ccc(/C=C/c8ccc(N(c9ccccc9)c9ccccc9)cc8)cc7)c7ccc(/C=C/c8ccc(N(c9ccccc9)c9ccccc9)cc8)cc7)cc6)c6nsnc56)cc4)cc3)ccc21 as the compound, how does the fluorescence lifetime (in C1CCOC1) read?
A: 1.76 ns

Q: What about the fluorescence lifetime (in CCOC(C)=O) of the same compound?
A: 1.79 ns

Q: And the fluorescence lifetime (in Cc1ccccc1)?
A: 3.49 ns

Q: And the fluorescence lifetime (in ClC(Cl)Cl)?
A: 2.38 ns

Q: What about the fluorescence lifetime (in ClCCl) of the same compound?
A: 1.75 ns

Q: For Cc1cc(C2=Cc3cccc[n+]3[B-](F)(F)O2)ccc1N(C)C, which fluorescence lifetime (in ClC(Cl)Cl) is on record?
A: 2.74 ns

Q: With CNC1=C2C=CC=[N+]2[B-](F)(F)n2cccc21 as the compound, how does the fluorescence lifetime (in C1CCCCC1) read?
A: 4.67 ns

Q: And the fluorescence lifetime (in CC(C)=O)?
A: 0.726 ns

Q: And the fluorescence lifetime (in CCO)?
A: 0.774 ns

Q: What about the fluorescence lifetime (in CCOC(C)=O) of the same compound?
A: 2.04 ns

Q: And the fluorescence lifetime (in CO)?
A: 0.523 ns

Q: And the fluorescence lifetime (in OCC(F)(F)F)?
A: 1.4 ns

Q: Which fluorescence lifetime (in ClC(Cl)Cl) does the source give for CC(C)(C)c1ccc(C2=c3sc(-c4ccc(C(C)(C)C)cc4)cc3=[N+]3C2=Nc2c(-c4ccc(C(C)(C)C)cc4)c4sc(-c5ccc(C(C)(C)C)cc5)cc4n2[B-]3(F)F)cc1 here?
A: 1.69 ns

Q: For COC(=O)C([NH3+])Cc1ccc2oc(-c3ccncc3)nc2c1 (stereo not drawn), which fluorescence lifetime (in CC1CCCCC1) is on record?
A: 3.12 ns

Q: And the fluorescence lifetime (in CC#N)?
A: 6.09 ns

Q: And the fluorescence lifetime (in CO)?
A: 0.742 ns

Q: What about the fluorescence lifetime (in O) of the same compound?
A: 0.999 ns

Q: For COc1cc(OC)cc(C2=[O+][B-](F)(F)OC(c3cccs3)=C2)c1, which fluorescence lifetime (in ClCCl) is on record?
A: 4.53 ns

Q: Which fluorescence lifetime (in ClCCl) does the source give for CCCCCCCCCCOc1ccc(C#Cc2cc3c(C#Cc4ccc(OCCCCCCCCCC)cc4)c(C#Cc4ccc(OCCCCCCCCCC)cc4)c4cc(C#Cc5ccc(OCCCCCCCCCC)cc5)cc5c(C#Cc6ccc(OCCCCCCCCCC)cc6)c(C#Cc6ccc(OCCCCCCCCCC)cc6)c(c2)c3c45)cc1 here?
A: 15.3 ns

Q: For CC(C)(C)c1ccc(N2c3ccc(C(C)(C)C)cc3B3c4cc(C(C)(C)C)ccc4N(c4ccc(C(C)(C)C)cc4)c4cc(-n5c6ccc(C(C)(C)C)cc6c6cc(C(C)(C)C)ccc65)cc2c43)cc1, which fluorescence lifetime (in Cc1ccccc1) is on record?
A: 6.02 ns

Q: Which fluorescence lifetime (in CC#N) does the source give for CCCCCCCCOc1ccc(C2=C3C(C)=C(C#Cc4ccc(B(c5c(C)cc(C)cc5C)c5c(C)cc(C)cc5C)cc4)C(C)=[N+]3[B-](F)(F)n3c(C)c(C#Cc4ccc(B(c5c(C)cc(C)cc5C)c5c(C)cc(C)cc5C)cc4)c(C)c32)cc1 here?
A: 4.37 ns

Q: What about the fluorescence lifetime (in CCCCCC) of the same compound?
A: 5.4 ns

Q: What about the fluorescence lifetime (in ClCCl) of the same compound?
A: 4.39 ns

Q: For O=S1(=O)c2ccc(-c3ccc4c(c3)c3ccccc3n4-c3ccccc3)cc2C2(c3cc(-c4ccc5c(c4)c4ccccc4n5-c4ccccc4)ccc31)c1cc(-c3ccc4c(c3)c3ccccc3n4-c3ccccc3)ccc1S(=O)(=O)c1ccc(-c3ccc4c(c3)c3ccccc3n4-c3ccccc3)cc12, which fluorescence lifetime (in CC1CCCO1) is on record?
A: 100 ns

Q: With Clc1ncc(-c2c3ccccc3c(-c3cnc(Cl)nc3)c3ccccc23)cn1 as the compound, how does the fluorescence lifetime (in CCO) read?
A: 2.1 ns

Q: And the fluorescence lifetime (in ClCCl)?
A: 6.2 ns

Q: What does the source list for N#Cc1ccc2c(c1)CCc1nc(-c3ccc([N+](=O)[O-])cc3)c3c(c1-2)CCc1cc(C#N)ccc1-3?
A: fluorescence lifetime (in C1CCOC1): 1.36 ns; fluorescence lifetime (in CC#N): 1.11 ns; fluorescence lifetime (in CCCCCC): 0.64 ns; fluorescence lifetime (in CCOC(C)=O): 1.11 ns; fluorescence lifetime (in CO): 0.84 ns; fluorescence lifetime (in CS(C)=O): 1.24 ns; fluorescence lifetime (in Cc1ccccc1): 0.88 ns; fluorescence lifetime (in ClCCl): 1.46 ns

Q: With c1ccc2c(-c3ccc4sc5ccccc5c4c3)c3ccccc3cc2c1 as the compound, how does the fluorescence lifetime (in C1CCCCC1) read?
A: 4.1 ns

Q: What about the fluorescence lifetime (in CC#N) of the same compound?
A: 4.5 ns

Q: And the fluorescence lifetime (in ClCCl)?
A: 5 ns

Q: Which fluorescence lifetime (in ClCCl) does the source give for COc1ccc(C#Cc2c3ccccc3c(C#Cc3ccc(OC)cc3)c3cc4ccccc4cc23)cc1 here?
A: 7 ns

Q: With O=S(=O)([O-])CCCCN1C=C/C(=C/C=C/C=C/c2cc[n+](CCCCS(=O)(=O)[O-])c3ccccc23)c2ccccc21 as the compound, how does the fluorescence lifetime (in CS(C)=O) read?
A: 0.36 ns

Q: With CCCCOC(=O)c1ccccc1-c1c2ccc(=[N+](CC)CC)cc-2oc2cc(N(CC)CC)ccc12 as the compound, how does the fluorescence lifetime (in CC#N) read?
A: 1.61 ns

Q: What about the fluorescence lifetime (in CCO) of the same compound?
A: 2.92 ns

Q: What about the fluorescence lifetime (in CN(C)C=O) of the same compound?
A: 1.92 ns

Q: And the fluorescence lifetime (in O)?
A: 1.67 ns

Q: For COc1ccc(C2=Nc3cccc4[n+]3[B-](F)(O2)OC(c2ccc(OC)cc2)=N4)cc1, which fluorescence lifetime (in ClCCl) is on record?
A: 1.8 ns

Q: Which fluorescence lifetime (in O=P(c1ccccc1)(c1ccccc1)c1ccccc1Oc1ccccc1P(=O)(c1ccccc1)c1ccccc1) does the source give for c1ccc(-c2nc(-c3ccccc3)nc(-c3ccc(-n4c5ccccc5c5c6c(ccc54)C4(c5ccccc5-c5ccccc54)c4ccccc4-6)cc3)n2)cc1 here?
A: 11.1 ns

Q: For CCN(CC)c1ccc(-c2nc3c4ccccc4n(C)c3nc2-c2ccc(B(c3c(C)cc(C)cc3C)c3c(C)cc(C)cc3C)cc2)cc1, which fluorescence lifetime (in C1CCOC1) is on record?
A: 9.21 ns

Q: For COc1ccc2cc(/C=C/c3ccccc3)c(=O)oc2c1, which fluorescence lifetime (in CC#N) is on record?
A: 2.75 ns

Q: With N#Cc1ccc(/C=C2\OC(=O)c3cc(N)ccc32)cc1 as the compound, how does the fluorescence lifetime (in CC#N) read?
A: 0.51 ns

Q: What about the fluorescence lifetime (in CC(C)=O) of the same compound?
A: 0.54 ns

Q: What about the fluorescence lifetime (in CC(C)CO) of the same compound?
A: 2.4 ns

Q: And the fluorescence lifetime (in CCO)?
A: 2.2 ns

Q: And the fluorescence lifetime (in CCOC(C)=O)?
A: 0.75 ns

Q: What about the fluorescence lifetime (in CO) of the same compound?
A: 2.67 ns

Q: For CN(C)c1ccc(N(C)C)cc1, which fluorescence lifetime (in C1CCCCC1) is on record?
A: 6.1 ns

Q: With c1ccc2c(c1)[nH]c1c3[nH]c4ccccc4c3c3nsnc3c21 as the compound, how does the fluorescence lifetime (in CN(C)C=O) read?
A: 1.3 ns

Q: And the fluorescence lifetime (in Cc1ccccc1)?
A: 1.02 ns

Q: And the fluorescence lifetime (in ClCCl)?
A: 1.27 ns

Q: What does the source list for NNC(=O)NNN1C(=O)c2cc(S(=O)(=O)[O-])cc3c(N)c(S(=O)(=O)[O-])cc(c23)C1=O?
A: fluorescence lifetime (in C1COCCO1): 3.4 ns; fluorescence lifetime (in CC#N): 10.7 ns; fluorescence lifetime (in CC(C)=O): 4.6 ns; fluorescence lifetime (in CC(C)O): 9.6 ns; fluorescence lifetime (in CCCCCCCCO): 8.8 ns; fluorescence lifetime (in CCO): 9.2 ns; fluorescence lifetime (in CCOC(C)=O): 2.5 ns; fluorescence lifetime (in CO): 9.5 ns; fluorescence lifetime (in CS(C)=O): 10.7 ns; fluorescence lifetime (in O): 5.1 ns; fluorescence lifetime (in OCCO): 7.9 ns; fluorescence lifetime (in c1ccncc1): 6.3 ns
